From US5202130A, “Suppression of eczematous dermatitis by calcium transport inhibition” (The Johns Hopkins University, priority 1989, dated 1993)
Structures can show the parent of a compound that is named as a salt. Where two headings read alike, the source gives them in different places.

Tests used:
[1] = system: epidermal Langerhans cells (ELC); test: Density and morphology of epidermal Langerhans cells, ATPase and Ia staining; format: in vivo, BALB/c mice
Description: Mice were sacrificed by cervical dislocation and their ears were amputated at the base. The skin was separated from underlying cartilage by dissection and pressed dermal side up onto an adhesive surface of a double stick tape (Dermotome Tape, 3M, St. Paul, Minn.), that had previously been fixed onto a glass slide. […] (25,26), then the epidermis was separated as an intact sheet from the underlying dermis.
Epidermal sheets were stained for ATPase activity according to MacKenzie and Squier (27). Briefly, epidermal sheets were fixed in Tris-maleic acid buffered 4% paraformaldehyde, pH 7.3, for 20 minutes at 4° C. After three washes with a 0.9% NaCl solution, the epidermal sheets were incubated at pH 7.3 in a solution containing 10 mg ATP, 5 ml of 10% MgSO4, 3 ml of 2% […], and 42 ml Tris-maleic acid buffer for one hour at 37° C., washed with 0.9% NaCl solution, and reacted with 0.1% ammonium sulfide for five minutes at room temperature. The stained specimens were mounted in a 9:1 mixture of PBS/glycerol.
Ia-positive cells were stained as follows: EDTA separated epidermal specimens, washed in PBS for 30 minutes, were fixed in cold acetone (-20° C.) for 20 minutes. After washing with PBS, the epidermal sheets were incubated with a 1:100 dilution of anti-mouse I-A^d monoclonal antibody (Becton Dickinson, Mountain View, Calif.) at 4° C. overnight (28). Subsequently, specimens were washed in PBS for two hours and exposed to fluorescein conjugated F(ab')2 fragment goat anti-mouse IgG (Organon Teknika Corp., West Chester, Pa.) at a 1:50 dilution for two hours at 37° C. The epidermal sheets were mounted in Perma Fluor (Lipshaw, Detroit, Mich.).
Slides were coded and read in a "blinded" manner. The density of ELC within each epidermal sheet was determined by using a dual epifluorescent and light microscope (Olympus BH-2, Japan) with a calibrated net micrometer grid. ATPase-positive ELC and Ia-positive ELC present in a 0.25 mm^2 area were counted in two random fields per sheet (total: 16 fields per experimental group). ELC density was recorded as the number of cells per mm^2 (mean ±S.E.). Statistical significance of the differences between treatment and control groups was calculated using a two-talled Wilcoxon Rank Sum Test. Differences between groups were considered significant at p=0.05.

[2] = following intraperitoneal administration; cited from earlier work
[3] = stated with intraperitoneal administration in mice; no test described; cited from earlier work
[4] = system: contact sensitization against DNCB; test: Inhibition of sensitization by diltiazem against DNCB (ear swelling); format: in vivo, BALB/c mice
Procedure: Diltiazem HCl (1,5-Benzothiazepin-4(5H)one, 3-acetoy lox-5-(2-(dimethylamine)ethyl)-2, 3-dihydro-2(4-methoxyphenyl)-, monohydrochloride, (+)-cis) was injected intraperitoneally in a dose of 30 mg/kg (LD50 =60 mg per kg) two times a day for three days. Two hours after the first injection, mice were sensitized by applying DNCB to the shaved dorsal back skin. Contact sensitization against DNCB was determined five days later.

DNFB contact sensitivity = test: Transfer of hyporesponsiveness to DNFB by spleen cells of mice sensitized on LaCl3 treated skin; format: in vivo, mice of the strain AB (H-2^k)
Description: (§1) Inbred mice of the strain AB (H-2^k) reared in the breeding colony of the Humboldt University Berlin were used. The mice were fed with water and standard pellets ad libitum. During all procedures (sensitization, challenge, measurement) the animals were anesthetized by an intraperitoneal injection of hexobarbital sodium salt. The number of animals per experimental group (n) is presented.
The mice were anesthesized in an area of 2.0×2.0 cm on their abdomen, abdominal skin was shaved with a blade, and a 20 microliters of a 0.5% solution of 2,4-dinitro-1-fluorobenzene (DNFB) (Serva, Heidelberg, F.R.G.) in acetone were applied to this site. This procedure was repeated one day later.
The challenge reaction was induced 5 days after the first sensitization by an application of 0.2% DNFB in acetone on the dorsal surfaces of both ears. The ear thickness was measured before and 24 hours after challenge using an engineers micrometer (Peacock, Japan).
(§2) 10 g LaCl3 ×7H2 O (Laborchemie Apolda, G.D.R.) was dissolved in 10 ml water and incorporated into unguentum alcoholum lanae aquosum. The previously shaved sensitization site on the abdominal skin of the mice was treated at the days numbered -1, 0, and +1 with this ointment. At the days 0 and +1, when contact sensitization with DNFB was performed, the ointment was applied on hour after sensitization, so that the penetration of the DNFB was not influenced by the ointment.
The spleens from mice treated with lanthanum and control animals were removed and homogenized by gently pressing the tissue through a steel mesh. The cell were suspended in RPMI 1640 medium (SIFIN, Berlin, G.D.R.) and were washed three times by centrifugation at 300 g for 10 minutes and resuspended. The treatment with monoclonal antibodies (mab) was performed by incubating the cells for 20 minutes with the L3T4 mab (clone GK 1.5, ATCC, Rockville, USA) or the anti-Lyt 2 mab (clone 53-6, ATCC, Rockville, USA) in a final dilution of 1:50. Thereafter the cells were washed 2 times and incubated for 20 minutes at 4° C. with a rat anti-mouse Ig mab (ATCC, Rockville, USA). […]

[5] = system: contact allergic dermatitis; test: Patch tests in seven patients with known contact allergic dermatitis, overall; format: in vivo, human (patients)
Procedure: Seven patients with known contact allergic dermatitis were recruited. One had hypersensitivity to nickel, four of these individuals had allergies against formaldehyde, and two had known allergies against chromium sulfate. Three patch test were applied in each individual. Patient number 1 was exposed to nickel sulfate (5% weight per volume) in hydrophilic ointment base USP. "Results" refers to the amount of erythema in the patch test sites at 48 hours, judged on a scale of 0-3+, where 3+ represents maximum erythema and inflammation.

[6] = system: delayed hypersensitivity to ovalbumin; test: Antigenic specificity of the suppressor cells (ovalbumin response of recipients); format: in vivo, mice of the strain AB (H-2^k)
Procedure: as §1, §2
The spleens from mice treated with lanthanum and control animals were removed and homogenized by gently pressing the tissue through a steel mesh. […]
Other groups of mice were sensitized by injection 50 microliters of ovalbumin (Serva, Heidelberg, F.R.G.) emulsified in 20 microliters of complete Freund's adjuvant (Difco laboratories, Detroit, U.S.A.) subcutaneously into the base of the tail. […] One day later foodpad swelling was measured. […]

[7] = format: in vivo, human (patients with atopic dermatitis)
Procedure: To date, eight patterns with endogenous eczema (atopic dermatitis) have been treated with topical lanthanides. In three individuals, atopic dermatitis affected the majority of the body surface. These three patients were treated with a single total body application of lanthanum chloride (5% in hydrophilic ointment base). Blood levels of lanthanum were measured by atomic absorption spectroscopy, over a period of 1/2 to 24 hours after the single application.

[8] = system: suppressor cells (CD4 or CD8 T cell determinants); test: Phenotype of the suppressor cells, spleen cells treated in vitro with mab and complement before transfer; format: in vivo, mice of the strain AB (H-2^k)
Procedure: The spleens from mice treated with lanthanum and control animals were removed and homogenized by gently pressing the tissue through a steel mesh. […] Thereafter the cells were washed 2 times and incubated for 20 minutes at 4° C. with a rat anti-mouse Ig mab (ATCC, Rockville, USA). The cells were washed 2 times and incubated for 30 minutes at 37° C. with normal rabbit serum, diluted 1:5 as a source of complement. The serum used was not toxic to the cells. Thereafter the cells were washed 2 times and 10^8 viable cells were injected intravenously into native syngeneic mice.
The non-parametric Mann-Whitney test was used.
To investigate the phenotype of this suppressor cell, spleen cells were harvested from mice which were previously sensitized with DNFB on LaCl3 pretreated skin. […]

[9] = system: contact sensitization against DNCB; test: Effect of topically administered La^3+ on sensitization against DNCB (ear swelling); format: in vivo, BALB/c mice
Procedure: Mice were treated with 50 microliters of 10% La^3+ chloride mixture (500 mg La^3+ chloride dissolved in 5 ml of 95% ethanol:glycerin [4:1 ratio]) applied for five consecutive days to the shaved back surface. Control animals were treated with the ethanol:glycerin vehicle only. On days 6 and 7, 25 microliters of 1.0% DNCB solution was applied to the shaved dorsal back surface. In mice pretreated with topical La^3+, DNCB was applied only to the shaved dorsal skin that had previously been treated with La^3+.

formaldehyde allergy = test: Prevention of inflammatory reaction by topical La^3+, patch test with formaldehyde; format: in vivo, human (patient); settings: 2% in hydrophilic ointment base, read at 72 hours
Procedure: In this example, a patient with known allergy against for formaldehyde was challenged with formaldehyde in the presence of lanthanum chloride. Lanthanum chloride was used at a 2% concentration (2 g/100 ml) in hydrophilic ointment base, USP, and the lanthanum was incorporated in the ointment at the time of exposure. The results of the patch test were read at 72 hours, and a photograph was taken. […] There was a very slight decrease of inflammation due to the presence of the ointment base itself. This slight decrease as a result of the use the emollient only is a well known phenomenon. […] The effect of the lanthanum is clearly much greater than that of the ointment base alone.

[10] = system: atopic dermatitis affecting the hands; test: Treatment of atopic dermatitis affecting the hands with lanthanum chloride ointment; format: in vivo, human (patients); settings: 5% ointment twice daily, 1-3 months; five patients
Procedure: Five patients with atopic dermatitis affecting the hands were treated with topical lanthanides. In this protocol individuals were dispensed a 5% lanthanum chloride ointment and were instructed to use a thin film on the hands twice daily immediately before work and immediately upon returning home from work. These individuals did so for a period of 1-3 months.

[11] = 0.25 mg per animal intraperitoneally for five days, vs control animals

lanthanum citrate [La^3+ citrate]
decrease in density of ATPase positive cells [1, 11]: 13% | decrease in number of Ia-positive cells [1, 11]: 14% | Density of Langerhans cells in ear skin, ATPase ([1]; ATPase staining, ± S.E., 0.9% NaCl 807 ± 55): 702 ± 49 cells/mm^2 | Density of Langerhans cells in ear skin, Ia ([1]; Ia staining, ± S.E., 0.9% NaCl 830 ± 46): 715 ± 59 cells/mm^2 | ELC "rounded up" and without dendrites ([1]; in focal areas, ATPase and Ia staining): approximately 20% | staining of "round" cells by the ATPase technique ([1]; subjectively measured by darkening of the cell body): more darkly stained | accumulation in the skin [2]: accumulated in the skin

COc1ccc([C@@H]2Sc3ccccc3N(CCN(C)C)C(=O)[C@@H]2OC(C)=O)cc1 [diltiazem, 1,5-Benzothiazepin-4(5H)one, 3-acetoy lox-5-(2-(dimethylamine)ethyl)-2,3-dihydro-2(4-methoxyphenyl)-, monohydrochloride, (+)-cis]
LD50 [3]: 60 mg per kg | reduction in the contact hypersensitivity response ([4]; 30 mg/kg intraperitoneally two times a day for three days, p=0.001): 67% | decrease in ear thickness 24 h post-challenge ([4]; FIG. 3, vs. solvent only, p<0.001): 67% | difference in ear swelling between pretreated and control animals ([4]; statement follows negative controls (challenged, not sensitized) 0.03±0.01 mm): not statistically significant | ear swelling ([4]; vehicle control 0.15±0.02 mm): 0.05±0.01 mm

[Cl][La]([Cl])[Cl] [lanthanum chloride, Lanthanum chloride]
% Suppression (DNFB contact sensitivity; recipients of cells from donors DNFB-sensitized on LaCl3 treated skin, n 7): 88% | transfer of hyporesponsiveness to DNFB by spleen cells (DNFB contact sensitivity; topical LaCl3 treatment of donors): transferred the hyporesponsiveness to DNFB to native syngeneic recipients | Ear thickness (DNFB contact sensitivity; ± SD, recipients of cells from donors DNFB-sensitized on LaCl3 treated skin, n 7, p 0.01, no cell transfer 46 ± 4.8): 29 ± 2.4 10^-2 mm | suppression of inflammation in all individuals ([5]; 5% lanthanum chloride at the time of exposure to known allergen): significant suppression of inflammation | suppression of inflammation upon challenge ([5]; seven patients, known sensitizing agents): dose dependent effect in suppression of inflammation | footpad swelling response of the recipients to ovalbumin ([6]; transferred cells from mice sensitized with DNFB on LaCl3-treated skin): not affected | Ear thickness (footpad swelling per footnote) ([6]; ± SD, DNFB sensitization on LaCl3 treated skin, recipients immunized with ovalbumin, n 8, NS, no cell transfer .68 ± .12): .68 ± .09 10^-2 mm | penetration of the stratum corneum of the epidermis [7]: does penetrate the stratum corneum of the epidermis | time of peak blood level ([7]; human, in vivo, topical or ocular): approximately 4 hours | Blood Concentration of La^+ 3 ([7]; human, in vivo, topical or ocular, 0.5 h): 4 ± 2.8 ng/mL | Blood Concentration of La^+ 3 ([7]; human, in vivo, topical or ocular, 1 h): 12.3 ± 2.3 ng/mL | Blood Concentration of La^+ 3 ([7]; human, in vivo, topical or ocular, 2 h): 12.16 ± 3 ng/mL | Blood Concentration of La^+ 3 ([7]; human, in vivo, topical or ocular, 4 h): 30.9 ± 2.2 ng/mL | Blood Concentration of La^+ 3 ([7]; human, in vivo, topical or ocular, 12 h): 14 ± 1.6 ng/mL | Blood Concentration of La^+ 3 ([7]; human, in vivo, topical or ocular, 24 h): 11 ± 3.6 ng/mL | blood level relative to levels known to produce toxicity in animals and humans ([7]; in vivo): well below those levels known to produce toxicity in animals and humans | suppressor T cell population induced ([8]; DNFB-sensitized mice): a splenic CD4-CD8+ suppressor T cell population is induced | % Suppression ([8]; spleen cells of LaCl3-treated, DNFB-sensitized donors, in vitro treatment as labelled (LaCl3 line = no treatment of cells), n 5): 100% | Ear thickness ([8]; ± SD, spleen cells of LaCl3-treated, DNFB-sensitized donors, in vitro treatment as labelled (LaCl3 line = no treatment of cells), no cell transfer 50 ± 4.2, n 5): 28 ± 2.1 10^-2 mm | ear swelling ([9]; 24 h post-challenge, control 0.12±0.02 mm, p=0.028): 0.05±0.02 mm | decrease in ear thickness 24 h post-challenge ([9]; FIG. 2, topical, vs. non-La-treated animals, p<0.01, challenge 25 μl of 0.25% DNCB): 58% | difference in ear swelling between pretreated and control animals ([9]; statement follows negative control (challenged without prior sensitization) 0.03±0.01 mm): not statistically significant | reduction in the contact hypersensitivity response ([9]; topical, 50 microliters of 10% La^3+ chloride, five days): 58% | inflammation in patch test (formaldehyde allergy): almost totally abolished | fissuring, oozing, and puritis [10]: decrease | hand dermatitis [10]: significant improvement
